Results on 6 compounds are retold here after US6635432B1, “Peptide potentiation of acid-sensory ion channel in pain” (University of Iowa Research Foundation, priority 2000, dated 2003).

Where no end group is shown, it is not given here.

Common to all, as to type: cell-based
For assay [1], the target named is T1, ASICα (Homo sapiens, UniProt P78348).
T1 sequence (P78348 1-528): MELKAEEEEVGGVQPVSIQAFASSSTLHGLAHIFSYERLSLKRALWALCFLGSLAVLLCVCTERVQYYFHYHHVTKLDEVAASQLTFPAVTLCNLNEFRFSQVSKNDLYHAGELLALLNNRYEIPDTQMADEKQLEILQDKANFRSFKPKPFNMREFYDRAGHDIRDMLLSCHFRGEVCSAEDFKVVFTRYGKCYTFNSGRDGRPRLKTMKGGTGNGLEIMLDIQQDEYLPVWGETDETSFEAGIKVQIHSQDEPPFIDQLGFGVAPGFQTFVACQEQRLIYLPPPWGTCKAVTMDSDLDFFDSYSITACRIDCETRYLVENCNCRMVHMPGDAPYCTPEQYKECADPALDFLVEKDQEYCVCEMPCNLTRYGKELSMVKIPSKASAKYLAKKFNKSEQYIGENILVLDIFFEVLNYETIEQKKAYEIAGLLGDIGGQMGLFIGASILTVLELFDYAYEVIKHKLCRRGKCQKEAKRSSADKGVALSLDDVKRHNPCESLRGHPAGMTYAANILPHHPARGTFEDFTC
Briefly: Two-electrode voltage-clamp of Xenopus oocytes expressing ASICα. Conditions: for effect on H+-gated ASICα current (inactivation, sustained current): pH 5, agents 50 μM (A18Famide 25 μM), added prior to and during acidification. Also on record: expressed in transfected cells; host or cells: Xenopus laevis oocytes (nuclear injection of pMT3 plasmid). The text has this: Human ASICα was cloned from brain polyA RNA. Rat ASICβ and mouse DRASIC were cloned from DRG RNA. Human BNC1 was cloned as described in Price et al. (1996)(Price, M. P., Snyder, P. M., and Welsh, M. J. (1996). Cloning and expression of a novel human brain Na^+ channel. J Biol Chem 271, 7879-7882). Constructs were cloned into pMT3 for expression.
(§1) Expression of the cDNA constructs in Xenopus oocytes was accomplished by injection of plasmid DNA into the nucleus of defolliculated albino Xenopus laevis oocytes (Nasco, Fort Atkinson, Wis.) as described previously (Adams, C. M., Snyder, P. M., Price, M. P., and Welsh, M. J. (1998). Protons activate brain Na^+ channel 1 by inducing a conformational change that exposes a residue associated with neurodegeneration. J Biol Chem 273, 30204-30207). Plasmids were injected at concentrations of 100 ng/μl for most experiments. Oocytes were incubated in modified Barth's solution at 18° C. for 12-26 hr after injection. Cells injected with DRASIC were allowed to incubate for 24-48 hr before analysis.
Whole-cell currents in oocytes were measured using a two-electrode voltage-clamp as previously described (Adams, et al. (1998)). Oocytes were bathed in frog Ringers solution containing, in mM: 116 NaCl, LiCl or KCl, 0.4 CaCl2, MgCl2, 5 4-(2-hydroxyethyl)-1-piperazineethanesulfonic acid (HEPES), pH 7.4. Acidic solutions were buffered with 5 mM 2-(4-morpholino)-ethanesulfonic acid (MES) instead of HEPES. Membrane voltage was held at −60 mV unless otherwise noted. Most peptides and naloxone were obtained from Sigma Chemical Co. (St. Louis, Mont.) and were added to the extracellular solution. The peptide FRRFamide was synthesized by Research Genetics (Huntsville, Ala.).
For orientation: In two-electrode clamp one electrode senses voltage and the other passes current.

In assay [2] the target is T1, ASICα. Briefly: Whole-cell patch-clamp of HEK-293T cells transfected with ASICα. Also on record: expressed in transfected cells. Conditions: HEK293 cells; amiloride 100 μM, FMRFamide 100 μM, pH 5. The source says: Human ASICα was cloned from brain polyA RNA. Rat ASICβ and mouse DRASIC were cloned from DRG RNA. […] Constructs were cloned into pMT3 for expression.
To identify transfected cells, pGreenlantern vector encoding green fluorescent protein (Gibco, Gaithersburg, Md.) was co-transfected with ASICα at a ratio of 1:6; transfected cells were identified using epifluorescence microscopy. Cells were studied 1-2 days after transfection.
(§2) The pipette solution contained, in mM: 120 KCl, 10 NaCl, 2 MgCl2, 5 EGTA, 10 HEPES. Perfusion of cells with different solutions was done by placing the appropriate outlet in front of the cell. Data were recorded with an AXOPATCH 200 (Axon Instruments, Foster City, Calif.) and stored on a digital tape recorder. Digitization was executed by acquiring data at 400 Hz using pClamp6 (Axon Instruments, Foster City, Calif.).
In general terms: The patch-clamp technique gives a direct electrical read-out from membranes.

Assay [3] relates to proton-gated currents in cultured rat DRG neurons. Briefly: Whole-cell patch-clamp of proton-gated currents in cultured DRG neurons. As to the method:
Rat DRG neurons were cultured from Norway rats as described in Benson et al. (1999)(Benson, C. J., Eckert, S. P., and McCleskey, E. W. (1999). Acid-evoked currents in cardiac sensory neurons: A possible mediator of myocardial ischemic sensation. Circulation Research 84, 921-928). Cells were allowed to incubate overnight at room temperature and studies were done 1 to 2 days after isolation.
as §2, with “During whole-cell patch-clamping of DRG neurons and transfected HEK-293T cells, the cells were bathed with an extracellular solution that contained, in mM: 128 NaCl, 5 MgCl2, 1.8 CaCl2, 5.4 KCl, 5.55 glucose, 20 HEPES, pH 7.5 or 5. The” for “The”
Whole-cell patch-clamp recordings were used to investigate the effect of FMRFamide on proton-gated currents in cultured rat DRG neurons. As previously reported (Akaike, N., and Ueno, S. (1994). Proton-induced current in neuronal cells. Prog Neurobiol 43, 73-83), acidification to pH 5 produced rapidly activating and inactivating currents in the sensory neurons of the DRG (FIGS. 1A-D). […] The presence of the neuropeptide immediately before acidification also altered inactivation (FIGS. 1C, 1D).

Assay [4] has as its target T2, ASICβ (Rattus norvegicus, UniProt P55926).
T2 construct: expressed in transfected cells; host or cells: Xenopus laevis oocytes (nuclear injection of pMT3 plasmid)
T2 sequence (P55926 1-559 isoform P55926-3): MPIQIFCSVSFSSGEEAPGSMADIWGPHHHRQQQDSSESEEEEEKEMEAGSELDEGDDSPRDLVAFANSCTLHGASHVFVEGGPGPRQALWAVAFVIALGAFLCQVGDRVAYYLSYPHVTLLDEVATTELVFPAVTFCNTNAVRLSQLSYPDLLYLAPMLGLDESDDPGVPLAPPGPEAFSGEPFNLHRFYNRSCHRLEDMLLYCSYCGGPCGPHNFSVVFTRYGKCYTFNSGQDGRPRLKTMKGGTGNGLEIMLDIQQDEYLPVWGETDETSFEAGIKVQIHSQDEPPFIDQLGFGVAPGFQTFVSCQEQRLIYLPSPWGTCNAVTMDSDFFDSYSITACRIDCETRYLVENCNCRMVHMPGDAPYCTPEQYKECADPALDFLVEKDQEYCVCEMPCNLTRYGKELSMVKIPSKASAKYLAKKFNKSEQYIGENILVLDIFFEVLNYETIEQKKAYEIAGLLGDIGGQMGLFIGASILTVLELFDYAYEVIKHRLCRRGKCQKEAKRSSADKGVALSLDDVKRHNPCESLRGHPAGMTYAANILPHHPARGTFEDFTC
Nature of the assay: Two-electrode voltage-clamp of Xenopus oocytes expressing ASICβ. The note with it: pH 5, peptide 50 μM.
Description: (§3) Human ASICα was cloned from brain polyA RNA. Rat ASICβ and mouse DRASIC were cloned from DRG RNA. Human BNC1 was cloned as described in Price et al. (1996)(Price, M. P., Snyder, P. M., and Welsh, M. J. (1996). Cloning and expression of a novel human brain Na^+ channel. J Biol Chem 271, 7879-7882). Constructs were cloned into pMT3 for expression. The validity of the constructs was confirmed by DNA sequencing.
as §1
(§4) Whole-cell currents in oocytes were measured using a two-electrode voltage-clamp as previously described (Adams, et al. (1998)). […]

Assay [5] concerns the target T3, BNC1 (Homo sapiens, UniProt Q16515).
T3 construct: expressed in transfected cells; host or cells: Xenopus laevis oocytes (nuclear injection of pMT3 plasmid)
T3 sequence (Q16515 1-512): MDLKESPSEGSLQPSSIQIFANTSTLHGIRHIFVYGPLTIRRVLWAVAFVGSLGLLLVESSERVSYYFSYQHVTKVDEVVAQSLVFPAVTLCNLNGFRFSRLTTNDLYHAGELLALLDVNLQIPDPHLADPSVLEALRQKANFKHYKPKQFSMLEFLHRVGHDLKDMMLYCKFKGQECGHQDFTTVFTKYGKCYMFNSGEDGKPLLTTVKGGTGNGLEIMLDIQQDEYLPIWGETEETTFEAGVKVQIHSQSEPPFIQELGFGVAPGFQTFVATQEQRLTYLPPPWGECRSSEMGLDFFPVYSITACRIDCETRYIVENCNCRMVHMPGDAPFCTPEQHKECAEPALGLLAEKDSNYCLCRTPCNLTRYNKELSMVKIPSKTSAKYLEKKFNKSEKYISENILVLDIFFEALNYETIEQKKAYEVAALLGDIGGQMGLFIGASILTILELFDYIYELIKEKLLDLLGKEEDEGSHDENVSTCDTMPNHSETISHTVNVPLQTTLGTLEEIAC
Briefly: Two-electrode voltage-clamp of Xenopus oocytes expressing BNC1. Conditions: pH 5.
Description: as §3, §1, §4

Assay [6] has as its target T4, DRASIC (Mus musculus, UniProt Q6X1Y6).
T4 construct: expressed in transfected cells; host or cells: Xenopus laevis oocytes (nuclear injection of pMT3 plasmid)
T4 sequence (Q6X1Y6 1-530): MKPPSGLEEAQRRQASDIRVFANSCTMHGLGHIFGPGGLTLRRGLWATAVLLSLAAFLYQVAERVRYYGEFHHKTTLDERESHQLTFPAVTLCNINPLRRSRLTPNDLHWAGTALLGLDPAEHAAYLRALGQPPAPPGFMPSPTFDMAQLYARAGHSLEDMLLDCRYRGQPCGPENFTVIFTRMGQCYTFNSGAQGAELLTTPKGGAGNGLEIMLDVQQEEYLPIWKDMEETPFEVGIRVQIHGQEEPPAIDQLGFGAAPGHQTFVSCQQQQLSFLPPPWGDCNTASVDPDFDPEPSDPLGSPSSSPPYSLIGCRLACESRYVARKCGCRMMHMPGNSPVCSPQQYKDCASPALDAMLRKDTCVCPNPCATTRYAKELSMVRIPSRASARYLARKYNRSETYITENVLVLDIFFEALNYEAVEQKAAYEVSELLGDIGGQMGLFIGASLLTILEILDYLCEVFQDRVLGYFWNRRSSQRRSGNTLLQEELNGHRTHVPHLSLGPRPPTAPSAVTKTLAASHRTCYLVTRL
Briefly: Two-electrode voltage-clamp of Xenopus oocytes expressing DRASIC. Conditions: neuropeptide FF 50 μM added prior to acidification.
Description: as §3, §1, §4

Turning to `N=C(N)NC(=O)c1nc(Cl)c(N)nc1N` [amiloride], the “effect of amiloride on FMRFamide-induced sustained current” value in assay [1] (amiloride 1 mM, FMRFamide 50 μM, pH 5) was “inhibited”; in assay [2] it was “inhibited”.
Turning to `CN1CC[C@]23c4c5ccc(O)c4O[C@H]2[C@@H](O)C=C[C@H]3[C@H]1C5` [morphine], in assay [3] (morphine 50 μM), the “mimicking of the FMRFamide effect on proton-gated current” value is given as “did not mimic it”. In assay [1], the “effect on H+-gated ASICα current (inactivation, sustained current)” value (from here on “effect on H+-gated ASICα current”) was “neither morphine nor naloxone altered ASICα current”.
`C=CCN1CC[C@]23c4c5ccc(O)c4O[C@H]2C(=O)CC[C@@]3(O)[C@H]1C5` [naloxone]: the “block of the FMRFamide effect on proton-gated current” value in assay [3] (naloxone 100 μM) is on record as “did not block the effect of FMRFamide”. For the same compound, in assay [1] (naloxone 500 μM applied before FMRFamide 50 μM, pH 5), the “effect of naloxone on FMRFamide-induced ASICα sustained current” value is listed as “neither morphine nor naloxone altered ASICα current”.
With “A18Famide: mammalian FMRFamide-like peptide, terminates with the sequence PQRFamide (AGEGLNSQFWSLAAPQRF-NH2; UniProt O15130 93-110, looked up)”, the “effect on H+-gated ASICα current” value in assay [1] is “Neither A18Famide nor MERF altered ASICα current”.
Regarding “Phe-Leu-Phe-Gln-Pro-Gln-Arg-Phe-amide [neuropeptide FF]”, the “effect on H+-gated ASICβ current (inactivation, sustained current)” value in assay [4] is “appeared unaffected”. The “size of effects compared with FMRFamide” value in assay [3] (pH 5, 50 μM each) is reported as “smaller than those generated by FMRFamide”. Also, the “effect on inactivation of proton-gated current and sustained current” value in assay [3] (pH 5, FMRFamide 50-100 μM, neuropeptide FF 50 μM) is on record as “altered inactivation of proton-gated DRF currents”. In assay [3] (without acidification), the “current generated by agent added alone” value was “generated no current on its own”. In addition, the “effect on H+-gated ASICα current” value was “produced only minor effects on inactivation rate but no sustained current” in assay [1] and “subtle effects on ASICα currents, slowing inactivation but not generating appreciable sustained current” in assay [1] (listed as Neuropeptide FF). For the same compound, the “effect on acid-gated BNC1 currents” value in assay [5] was “appeared unaffected”. In addition, in assay [6], the “effect on inactivation of H+-gated DRASIC currents” value is given as “slowed the inactivation of H^+-gated DRASIC currents”.
In the case of “metenkephalin-Arg-Phe (YGGFMRF; Met-enkephalin-Arg-Phe; UniProt P01210 261-267, looked up) [MERF]”, the “effect on H+-gated ASICα current” value in assay [1] is “Neither A18Famide nor MERF altered ASICα current”.
